# Measured values published in patent US6835715B1, “Mammalian dihydroouabain-like factor and therapeutic compositions” (University of Louisville Research Foundation, Inc., priority 1999, dated 2004).
# Legend:
# [1] = target: porcine cerebral cortex Na+,K+-ATPase; experiment: Inhibition of Na+,K+-ATPase catalytic activity (phosphate release from ATP); assay type: biochemical
# Description: Dried frozen powder of porcine cerebral cortical tissue (PCC) was reconstituted at 1 Unit/ml in buffer containing; 50 mM Tris-HCl and 2 mM MgCl2, at a pH of 7.2. The reconstituted tissue was then washed three times and resuspended in the same buffer. The protein concentration was determined by BIO-RAD Protein Assay (Bio-Rad, Hercules, Calif.), adjusted to about 1 mg/ml and used both in the catalytic inhibition and ouabain-stimulated phosphorylation experiments (PAGE and Western analysis). The inhibition assay was performed briefly by pipetting 20 μl of sample containing the desired concentration of glycoside (Tris buffer was used for no-inhibitor control) into a well of a microtiter plate placed in a 37° C. water bath for 10 minutes. […] After the incubation period, we added 150 μl of molybdate solution (per liter, 1.0 mmol of molybdate, 11 mmol of sulfuric acid, and 142 ml of Tween 80: methanol solution (12:88 by vol). After 30 minutes of incubation, color development was allowed to proceed for a maximum of 30 min. after which the color intensity was measured by pipetting 150 μl of the reaction mixture from each well to a corresponding well on another microtiter plate. The color intensity is proportional to the release of phosphate ions which is a direct indicator of ATP breakdown and therefore NKA activity. The absorbances were measured simultaneously at 340 nm. […]
# [2] = test system: Na+,K+-ATPase α-subunits (porcine cerebral cortical tissue); experiment: Ouabain-stimulated 32Pi phosphorylation of Na+,K+-ATPase alpha subunit; assay type: biochemical; conditions: equimolar concentrations; ouabain = 100%; listed as Dho
# Description: The ouabain-stimulated phosphorylation of Na^+, K^+-ATPase by phosphate was performed as described in Huang et al., (1994) with some minor modifications. Since the covalently phosphorylated intermediate of the sodium pump formed from inorganic phosphorous (^32Pi) is alkali-labile (acid-stable phosphenzyme intermediate), acidic pH gel electrophoresis was used to resolve the radioactively labeled protein species. Briefly, 60 μl aliquots containing 100-200 μg of porcine cerebral cortical tissues (PCC) were pre-incubated at room temperature for 25 min. with 20 μl of sample in the reaction buffer (50 mM Tris-HCL and 2 mM MgCl2, pH 7.2). A positive control was pre-incubated with 20 μl of a 1 mM ouabain solution also, a negative control was pre-incubated with 20 μl of buffer alone. 10 μl of ^32Pi (1 mCi in 100 μl) was diluted with 250 μl of phosphoric acid and purified through 0.2 μm filter to remove polyphosphates. At the end of the incubation, 20 μl of the ^32Pi filtrate (30 μM, 8 uCi) was added to the mixture and allowed to incubate at room temperature for an additional 15 minutes. The reaction was terminated by the addition of 1 ml 8% HCLO4 which precipitated the proteins and left unincorporated ^32Pi in solution. […] Autoradiograms were quantitated using a soft laser scanning densitometer. […]
# anti-ouabain antibody = experiment: Ouabain EIA, cross-reactivity with anti-ouabain antibody; assay type: binding; conditions: for cross-reactivity with ouabain antibody: ouabain = 100%
# Description: UV spectral properties, molar absorptivity, and concentrations of these endogenous factors were calculated.
# (§1) OLF was measured using ouabain EIA. This assay uses ouabain covalently bound to the microtiter plate to compete with unbound samples or standards for binding to a constant amount of anti-ouabain antibody (Harris et al., 1991). Dihydroouabain-like immunoreactivity was measured by EIA using a polyclonal dihydroouabain-specific antibody prepared according to our specifications by HTI Bio-Product Inc (Ramona, Calif.). The antibody production strategy was as follows: dihydroouabain (dho) was conjugated to keyhole limpet hemocyanin (KLH) through the rhamnose sugar ring and the resulting conjugate was injected in three rabbits. Blood samples from the rabbits were drawn three weeks after the primary injection, and every two weeks after subsequent booster injections.
# Two specific antibodies, one against ouabain and one against dihydroouabain, were used to characterize OLF and DH-OLF. Both of these antibodies are sensitive to structural changes at the lactone ring epitope of these molecules. […] The concentrations were determined using molar absorptivities as described above.
# [3] = test system: anti-dihydroouabain antibody; experiment: Dihydroouabain EIA, cross-reactivity with anti-dihydroouabain antibody; assay type: binding, rabbit; conditions: dihydroouabain = 100%
# Description: as §1, with “injections. […]” for “injections.”
# Briefly, immunoassay plates were coated with approximately 0.5 μg dho-BSA conjugate/well for a minimum of 18 hrs. at 4° C. […] Color development was monitored at 650 nm for a maximum of 30 min. after which the reaction was stopped with TMB Stop buffer and the plate was then read at 450 nm. The readings were adjusted with a system blank and for non-specific binding.
# Two specific antibodies, one against ouabain and one against dihydroouabain, were used to characterize OLF and DH-OLF. […] The concentrations were determined using molar absorptivities as described above.
Structure (SMILES),"IC50 ([1]; porcine cerebral cortex enzyme, read-out: IC50 for inhibiting the catalytic activity of the Na+,K+-ATPase enzyme) [nM]","times less potent than ouabain for inhibition of Na+,K+-ATPase ([1]; relative to ouabain) [times]",phosphorylation activity relative to ouabain [2] [%],affinity for anti-ouabain antibody (anti-ouabain antibody),cross-reactivity with ouabain antibody (anti-ouabain antibody),cross-reactivity with dihydroouabain antibody [3] [%]
C[C@@H]1O[C@@H](O[C@H]2C[C@@H](O)[C@]3(CO)[C@H]4[C@H](O)C[C@]5(C)[C@@H]([C@@H]6COC(=O)C6)CC[C@]5(O)[C@@H]4CC[C@]3(O)C2)[C@H](O)[C@H](O)[C@H]1O [dho-B],1700,3,,,,
"C[C@@H]1O[C@@H](O[C@H]2C[C@@H](O)[C@]3(CO)[C@H]4[C@H](O)C[C@]5(C)[C@@H]([C@@H]6COC(=O)C6)CC[C@]5(O)[C@@H]4CC[C@]3(O)C2)[C@H](O)[C@H](O)[C@H]1O [dihydroouabain, Dihydroouabain]",,,82,little affinity,2-3%,100
"C[C@@H]1O[C@@H](O[C@H]2C[C@@H](O)[C@]3(CO)[C@H]4[C@H](O)C[C@]5(C)[C@@H](C6=CC(=O)OC6)CC[C@]5(O)[C@@H]4CC[C@]3(O)C2)[C@H](O)[C@H](O)[C@H]1O [ouabain, Ouabain]",,,,,100%,0.1
